Like-named read-outs stand apart in the source and are kept apart here.
Legend:
hDAT = hDAT (Homo sapiens (Human), UniProt Q01959); experiment: DAT radioligand binding assay ([125I]RTI-55, HEK-293 membranes)
Procedure: (§1) Recombinant HEK-293 cells expressing either the hSERT, hDAT, or hNET proteins were harvested from T-175 flasks as follows. The medium was removed from the flasks and the cells rinsed with HBSS without Ca and without Mg. The cells were then incubated for 5-10 minutes in 10 mM Tris-Cl, pH 7.5, 5 mM EDTA before the cells were lifted with a combination of pipetting and scraping, as needed. The cell suspension was collected into centrifuge bottles and homogenized for 30 seconds with a Polytron homogenizer. The suspension was centrifuged for 30 minutes at 32,000×g, 4° C. The supernatant was decanted and the pellet resuspended and homogenized in 50 mM Tris-Cl, pH 7.5, 1 mM EDTA for 10 seconds. The suspension was then centrifuged again for 30 minutes at 32,000×g, 4° C. The supernatant was decanted and the pellet resuspended in 50 mM Tris-Cl, pH 7.5, 1 mM EDTA and briefly homogenized. A Bradford assay (Bio-rad) was performed and the membrane preparation diluted to 2 mg/ml with 50 mM Tris-Cl, pH 7.5, 1 mM EDTA. Aliquots were prepared, and then frozen and stored at −80° C.
Compounds were dissolved in 100% DMSO at a concentration 100 times the desired highest assay concentration, serially diluted 1:3 in 100% DMSO, and 0.4 μl/well of each solution was dispensed to a Nunc polypropylene, round bottom, 384-well plate. […] 20 ul/well of a 2× membrane preparation (12.5 μg/ml in 30 mM sodium phosphate buffer, pH 7.9 at 4° C.) and 20 μl/well of a 2× radioligand solution (250 pM [^125I]RTI-55 in 30 mM sodium phosphate buffer, pH 7.9 at 4° C.) were added to the well and the reaction incubated for 1 hour at room temperature. The contents of the assay plate were then transferred to a Millipore MultiscreenHTS GF/B filter plate which was pretreated with 0.5% PEI for at least one hour. The plate was vacuum-filtered and washed with 7 washes of 100 μl/well 50 mM Tris-Cl, pH 7.5, 120 mM NaCl, 5 mM KCl chilled to 4° C. The filtration and washing were completed in less than 90 seconds. The plates were air-dried overnight, 12 μl/well of MicroScint scintillation fluid added, and the plates counted in a Trilux.
(§2) Each plate was run in triplicate, and the concentration response curve thus generated was fit using the four-parameter dose response equation, Y=Bottom+(Top-Bottom)/(1+10^((Log IC50−X)*HillSlope)) in order to determine the IC50 value for each compound. The radioligand concentration chosen for each assay corresponds to the Kd concentration determined through saturation binding analysis for each assay.

hNET = hNET (Homo sapiens (Human), UniProt P23975); experiment: NET radioligand binding assay ([3H]nisoxetine, HEK-293 membranes); conditions: recombinant HEK-293 membranes, [3H]nisoxetine; read-out: Binding Affinity (IC50, nM) NET
Chain of hNET (P23975 whole entry): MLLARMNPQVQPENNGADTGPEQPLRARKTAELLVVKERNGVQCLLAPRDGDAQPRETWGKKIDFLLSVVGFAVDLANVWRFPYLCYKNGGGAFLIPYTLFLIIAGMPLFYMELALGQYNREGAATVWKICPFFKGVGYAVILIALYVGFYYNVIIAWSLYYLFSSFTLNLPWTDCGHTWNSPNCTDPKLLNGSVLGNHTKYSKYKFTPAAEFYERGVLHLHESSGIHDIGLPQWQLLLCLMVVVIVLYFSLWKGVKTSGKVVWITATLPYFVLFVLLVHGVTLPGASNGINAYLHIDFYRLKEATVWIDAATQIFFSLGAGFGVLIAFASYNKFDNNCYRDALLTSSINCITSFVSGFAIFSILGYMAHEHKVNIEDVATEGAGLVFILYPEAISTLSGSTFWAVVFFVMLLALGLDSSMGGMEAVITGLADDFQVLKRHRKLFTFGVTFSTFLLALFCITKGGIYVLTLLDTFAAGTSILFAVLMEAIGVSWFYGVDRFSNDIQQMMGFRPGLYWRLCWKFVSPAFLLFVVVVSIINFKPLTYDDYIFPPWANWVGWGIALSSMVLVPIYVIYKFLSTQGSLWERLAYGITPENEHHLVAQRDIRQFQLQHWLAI
Procedure: as §1, with “The” for “Recombinant HEK-293 cells expressing either the hSERT, hDAT, or hNET proteins were harvested from T-175 flasks as follows. The”
Compounds were dissolved in 100% DMSO at a concentration 100 times the desired highest assay concentration, serially diluted 1:3 in 100% DMSO, and 1.0 μl/well of each solution was dispensed to a Nunc polypropylene, round bottom, 384-well plate. […] 50 μl/well of a 2× membrane preparation (0.4 mg/ml in 50 mM Tris-Cl, pH 7.5, 120 mM NaCl, 5 mM KCl) and 50 μl/well of a 2× radioligand solution (4 nM [^3H]nisoxetine in 50 mM Tris-Cl, pH 7.5, 120 mM NaCl, 5 mM KCl) were added to the well and the reaction incubated for 1 hour at room temperature. The contents of the assay plate were then transferred to a Millipore MultiscreenHTS GF/B filter plate which was pretreated with 0.5% PEI for at least one hour. The plate was vacuum filtered and washed with 7 washes of 100 μl/well 50 mM Tris-Cl, pH 7.5, 120 mM NaCl, 5 mM KCl chilled to 4° C. The filtration and washing were completed in less than 90 seconds. The plates were air-dried overnight, 12 μl/well of MicroScint scintillation fluid added, and the plates counted in a Trilux.
as §2

hSERT = hSERT (Homo sapiens (Human), UniProt P31645); experiment: SERT radioligand binding assay ([125I]RTI-55, HEK-293 membranes)
Chain of hSERT (P31645 whole entry): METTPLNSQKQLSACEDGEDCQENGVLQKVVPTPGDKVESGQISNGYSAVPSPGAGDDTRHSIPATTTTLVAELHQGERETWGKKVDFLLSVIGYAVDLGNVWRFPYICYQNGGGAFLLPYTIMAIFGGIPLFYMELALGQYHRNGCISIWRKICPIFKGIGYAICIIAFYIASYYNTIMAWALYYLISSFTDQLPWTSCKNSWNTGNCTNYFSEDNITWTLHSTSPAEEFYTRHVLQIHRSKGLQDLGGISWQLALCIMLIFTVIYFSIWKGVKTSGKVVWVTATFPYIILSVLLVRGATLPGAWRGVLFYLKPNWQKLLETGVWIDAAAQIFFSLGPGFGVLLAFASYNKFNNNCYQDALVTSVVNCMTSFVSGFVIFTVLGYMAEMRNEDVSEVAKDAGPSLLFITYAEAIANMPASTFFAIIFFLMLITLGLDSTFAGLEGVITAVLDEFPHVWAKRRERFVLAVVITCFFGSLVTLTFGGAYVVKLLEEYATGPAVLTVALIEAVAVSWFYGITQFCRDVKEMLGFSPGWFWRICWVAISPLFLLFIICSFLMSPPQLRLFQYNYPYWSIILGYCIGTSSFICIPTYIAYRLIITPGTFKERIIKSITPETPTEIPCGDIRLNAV
Procedure: as §1, with “The” for “Recombinant HEK-293 cells expressing either the hSERT, hDAT, or hNET proteins were harvested from T-175 flasks as follows. The”
Compounds were dissolved in 100% DMSO at a concentration 100 times the desired highest assay concentration, serially diluted 1:3 in 100% DMSO, and 0.4 μl/well of each solution was dispensed to a Nunc polypropylene, round bottom, 384-well plate. […] The contents of the assay plate were then transferred to a Millipore MultiscreenHTS GF/B filter plate which was pretreated with 0.5% PEI for at least one hour. The plate was vacuum filtered and washed with 7 washes of […] 50 mM Tris-Cl, pH 7.5, 120 mM NaCl, 5 mM KCl chilled to 4° C. The filtration and washing were completed in less than 90 seconds. The plates were air-dried overnight, 12 μl/well of MicroScint scintillation fluid added, and the plates counted in a Trilux.
as §2

[1] = recombinant HEK-293 membranes, [125I]RTI-55, read-out: Binding Affinity (IC50, nM) DAT
[2] = recombinant HEK-293 membranes, [125I]RTI-55, read-out: Binding Affinity (IC50, nM) SERT

Chain of hDAT (Q01959 whole entry): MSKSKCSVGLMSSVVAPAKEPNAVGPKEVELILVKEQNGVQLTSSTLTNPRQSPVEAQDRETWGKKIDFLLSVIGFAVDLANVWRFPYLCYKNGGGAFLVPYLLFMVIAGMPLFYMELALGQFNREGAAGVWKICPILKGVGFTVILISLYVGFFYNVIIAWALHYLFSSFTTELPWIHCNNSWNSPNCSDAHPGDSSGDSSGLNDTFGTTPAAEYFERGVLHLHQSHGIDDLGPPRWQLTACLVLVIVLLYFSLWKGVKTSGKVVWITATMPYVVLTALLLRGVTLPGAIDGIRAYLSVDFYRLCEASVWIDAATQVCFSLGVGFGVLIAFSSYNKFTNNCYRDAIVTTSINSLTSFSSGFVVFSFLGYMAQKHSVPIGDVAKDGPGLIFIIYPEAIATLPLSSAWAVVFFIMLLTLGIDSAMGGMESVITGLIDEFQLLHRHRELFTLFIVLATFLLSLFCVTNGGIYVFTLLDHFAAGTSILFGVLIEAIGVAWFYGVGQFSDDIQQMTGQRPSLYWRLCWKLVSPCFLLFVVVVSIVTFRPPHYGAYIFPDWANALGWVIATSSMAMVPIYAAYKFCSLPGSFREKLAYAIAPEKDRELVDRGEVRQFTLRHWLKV

Row | Structure (SMILES) | IC50 (hDAT; [1]) | IC50 (hNET) | IC50 (hSERT; [2]) | IC50 (hDAT) | IC50 (hSERT)
1 | FC(F)Oc1ccc2c(c1)CN1CCC2(c2ccc(Cl)c(Cl)c2)CC1 [Example 46, 5-(3,4-dichlorophenyl)-2,5-ethano-8-(difluoromethoxy)-2,3,4,5-tetrahydro-1H-benzo[c]azepine] | 55.2 nM | 140 nM | 3 nM | – | –
2 | O=c1ccccn1-c1ccc2c(c1)CN1CCC2(c2ccc(Cl)cc2)CC1 [Example 24, 1-(5-(4-chlorophenyl)-2,5-ethano-2,3,4,5-tetrahydro-1H-benzo[c]azepin-8-yl)pyridin-2(1H)-one] | 856 nM | 5330 nM | 7.3 nM | – | –
3 | Fc1ccc(C23CCN(CC2)Cc2cc(-c4ccc5ncnn5c4)ccc23)cc1Cl [Example 54, 8-([1,2,4]triazolo[1,5-a]pyridin-6-yl)-5-(3-chloro-4-fluorophenyl)-2,5-ethano-2,3,4,5-tetrahydro-1H-benzo[c]azepine] | 78 nM | 541 nM | 4.4 nM | – | –
4 | Nc1cnc(Oc2ccc3c(c2)CN2CCC3(c3ccc(Cl)cc3)CC2)cn1 [Example 34, 5-(5-(4-chlorophenyl)-2,5-ethano-2,3,4,5-tetrahydro-1H-benzo[c]azepin-8-yloxy)pyrazin-2-amine] | 104 nM | 430 nM | 2.3 nM | – | –
5 | O=c1[nH]c2ccc(-c3ccc4c(c3)CN3CCC4(c4ccc(Cl)c(Cl)c4)C3)cc2o1 (single isomer, unassigned) [11(+), 8-(2-oxo-2,3-dihydrobenzo[d]oxazol-6-yl)-5-(3,4-dichlorophenyl)-2,5-methano-2,3,4,5-tetrahydro-1H-benzo[c]azepine] | 50 nM | 369 nM | 3.5 nM | – | –
6 | FC(F)(F)c1ccc(-c2ccc3c(c2)CN2CCC3(c3ccc(Cl)cc3)CC2)nn1 [Example 15, 5-(4-chlorophenyl)-2,5-ethano-8-(6-(trifluoromethyl)pyridazin-3-yl)-2,3,4,5-tetrahydro-1H-benzo[c]azepine] | – | 384 nM | – | 121 nM | 2.6 nM
7 | N#Cc1ccc(-c2ccc3c(c2)CN2CCC3(c3ccc(Cl)cc3)C2)cc1 (racemic) [Example 8, rac-4-(5-(4-chlorophenyl)-2,5-methano-2,3,4,5-tetrahydro-1H-benzo[c]azepin-8-yl)benzonitrile] | 450 nM | 1210 nM | 16.6 nM | – | –
8 | COc1ccc2c(c1)CN1CCC2(c2ccc(Cl)cc2)CC1 [Example 12, 5-(4-chlorophenyl)-8-methoxy-2,5-ethano-2,3,4,5-tetrahydro-1H-2-benzo[c]azepine] | 52 nM | 881 nM | 7.8 nM | – | –
9 | Oc1ccc2c(c1)CN1CCC2(c2ccc(Cl)cc2)CC1 [Example 13, 5-(4-chlorophenyl)-2,5-ethano-2,3,4,5-tetrahydro-1H-2-benzo[c]azepin-8-ol] | 21.1 nM | 691 nM | 16.3 nM | – | –
10 | Clc1ccc(C23CCN(CC2)Cc2cc(Oc4cnccn4)ccc23)cc1Cl [Example 44, 5-(3,4-dichlorophenyl)-2,5-ethano-8-(pyrazin-2-yloxy)-2,3,4,5-tetrahydro-1H-benzo[c]azepine] | 33.9 nM | 161 nM | 4.7 nM | – | –
11 | Fc1ccc(C23CCN(CC2)Cc2cc(-c4ccc(C(F)(F)F)nn4)ccc23)cc1Cl [Example 53, 5-(3-chloro-4-fluorophenyl)-2,5-ethano-8-(6-(trifluoromethyl)pyridazin-3-yl)-2,3,4,5-tetrahydro-1H-benzo[c]azepine] | 120 nM | 345 nM | 2.1 nM | – | –
12 | Oc1ccc(-c2ccc3c(c2)CN2CCC3(c3ccc(Cl)c(Cl)c3)CC2)nn1 [Example 41, 6-(5-(3,4-dichlorophenyl)-2,5-ethano-2,3,4,5-tetrahydro-1H-benzo[c]azepin-8-yl)pyridazin-3-ol] | 5.1 nM | 79.2 nM | 5 nM | – | –
13 | Fc1ccc(C23CCN(Cc4cc(-c5ccc6ncnn6c5)ccc42)C3)cc1Cl (single isomer, unassigned) [55(−), 8-([1,2,4]triazolo[1,5-a]pyridin-6-yl)-5-(3-chloro-4-fluorophenyl)-2,5-methano-2,3,4,5-tetrahydro-1H-benzo[c]azepine] | 35.3 nM | 175 nM | 2.2 nM | – | –
14 | Cc1nnc2ccc(-c3ccc4c(c3)CN3CCC4(c4ccc(Cl)cc4)CC3)cn12 [Example 20, 5-(4-chlorophenyl)-2,5-ethano-8-(3-methyl-[1,2,4]triazolo[4,3-a]pyridin-6-yl)-2,3,4,5-tetrahydro-1H-benzo[c]azepine] | 220 nM | 1020 nM | 12.1 nM | – | –
15 | COc1ccc(-c2ccc3c(c2)CN2CCC3(c3ccc(Cl)c(Cl)c3)CC2)nn1 [Example 40, 5-(3,4-dichlorophenyl)-8-(6-methoxypyridazin-3-yl)-2,5-ethano-2,3,4,5-tetrahydro-1H-benzo[c]azepine] | 5.9 nM | 148 nM | 9.8 nM | – | –
16 | Oc1ccc(-c2ccc3c(c2)CN2CCC3(c3ccc(Cl)cc3)C2)nn1 (single isomer, unassigned) [7(+), 6-(5-(4-chlorophenyl)-2,5-methano-2,3,4,5-tetrahydro-1H-benzo[c]azepin-8-yl)pyridazin-3-ol] | 148 nM | 674 nM | 62.5 nM | – | –
17 | Clc1ccc(C23CCN(CC2)Cc2cc(OCCCc4cccnc4)ccc23)cc1 [Example 36, 5-(4-chlorophenyl)-2,5-ethano-8-(3-(pyridin-3-yl)propoxy)-2,3,4,5-tetrahydro-1H-benzo[c]azepine] | 65.7 nM | 62.3 nM | 1.2 nM | – | –
18 | Clc1ccc(C23CCN(CC2)Cc2cc(-c4cnc5ccccc5n4)ccc23)cc1 [Example 21, 5-(4-chlorophenyl)-2,5-ethano-8-(quinoxalin-2-yl)-2,3,4,5-tetrahydro-1H-benzo[c]azepine] | 353 nM | 1540 nM | 5.2 nM | – | –
19 | Fc1ccc(C23CCN(CC2)Cc2cc(Oc4ccc(C(F)(F)F)nn4)ccc23)cc1F [Example 51, 5-(3,4-difluorophenyl)-2,5-ethano-8-(6-(trifluoromethyl)pyridazin-3-yloxy)-2,3,4,5-tetrahydro-1H-benzo[c]azepine] | 63.2 nM | 231 nM | 20.2 nM | – | –
